Laboratory results as given in patent publication US8518963B2, “Therapeutic polymeric nanoparticle compositions with high glass transition temperature or high molecular weight copolymers” (BIND Therapeutics, Inc., priority 2009, dated 2013).

Tests used:
[1] = tested on: indomethacin induced inflammatory bowel disease in rats; test: Rat model of inflammatory bowel disease (IBD); type: in vivo; details: 5 days, female rats
Experimental: Budesonide and Budesonide PTNP were compared in a model of inflammatory bowel disease (IBD) as an efficacy model of inflammation. In this model, female rats were given two subcutaneous doses of 8 mg/kg indomethacin at 24 hour intervals to induce lesions resembling those occurring in Crohn's disease in the small intestine. Intravenous daily treatment with vehicle, budesonide (0.02, 0.2 or 2 mg/kg) or budesonide PTNP (0.02, 0.2 or 2 mg/kg) or oral daily treatment with Dexamethasone (0.1 mg/kg) was initiated one day before indomethacin treatment (day −1) and continued for 5 total days (days −1 to 3). Animals were euthanized on day 4, and a 10 cm area at risk in the small intestine was scored for gross pathology and weighed.
Using a disease scoring system in which a score of 0 is normal, and a score of 5 indicates death due to IBD symptoms, normal rats have an average score of 0, and an average intestinal weight of 0.488 g.

[2] = Rat pharmacokinetics after a single intravenous dose; type: in vivo, Rats (male Sprague Dawley); details: single intravenous dose 0.5 mg/kg, plasma, individual rats
Experimental: Rats (male Sprague Dawley, approximately 300 g with jugular cannulae) were given a single intravenous dose of 0.5 mg/kg of budesonide or passively targeted nanoparticles (PTNP) encapsulating budesonide (prepared as in Example 16) at time=0. At various times after dosing, blood samples were collected from the jugular cannulae into tubes containing lithium heparin, and plasma was prepared. Plasma levels were determined by extraction of the budesonide from plasma followed by LCMS analysis.

- AUCinf [2]: 159 ng·h/mL
- t1/2 [2]: 45 min
Compound: CCCC1O[C@@H]2C[C@H]3[C@@H]4CCC5=CC(=O)C=C[C@]5(C)[C@H]4[C@@H](O)C[C@]3(C)[C@]2(C(=O)CO)O1 (some centres unmarked) [Budesonide, budesonide]
- decrease of intestinal scores towards normal ([1]; 0.02 mg/kg intravenous daily): 52%
- decrease of small intestine weights toward normal ([1]; 0.02 mg/kg intravenous daily): 52%
- decrease of intestinal scores towards normal ([1]; 0.2 mg/kg intravenous daily): 53%
- decrease of small intestine weights toward normal ([1]; 0.2 mg/kg intravenous daily): 53%
- decrease of intestinal scores towards normal ([1]; 2 mg/kg intravenous daily): 59%
- decrease of small intestine weights toward normal ([1]; 2 mg/kg intravenous daily): 59%
